# Laboratory results published in patent US20020026053A1, “Novel 3-(substituted) -2- indolinones compounds and use thereof as inhibitors of protein kinase activity” (priority 1997, published 2002).
# Biological target: T1, Met receptor (EGFR/Met chimeric cells, EMR) (Homo sapiens, UniProt P08581)
# T1 construct: expressed in transfected cells; the other entry of the earlier key: EGFR (P00533, Epidermal growth factor receptor)
# Test: Met Autophosphorylation Assay
# Type: biochemical
# Details: protocol P.130
# Method in brief: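 Transiently transfected EGFR/Met chimeric (EMR) cells were lysed in HNTG with 1 mM PMSF. Met was captured on plates coated with goat anti-rabbit IgG, then rabbit anti-Met (C-28), using 90 μg lysate/100 μl for 60 min at room temperature. Phosphotyrosine was read by ELISA.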
# T1 sequence (P08581 with tags, fused parts or gaps): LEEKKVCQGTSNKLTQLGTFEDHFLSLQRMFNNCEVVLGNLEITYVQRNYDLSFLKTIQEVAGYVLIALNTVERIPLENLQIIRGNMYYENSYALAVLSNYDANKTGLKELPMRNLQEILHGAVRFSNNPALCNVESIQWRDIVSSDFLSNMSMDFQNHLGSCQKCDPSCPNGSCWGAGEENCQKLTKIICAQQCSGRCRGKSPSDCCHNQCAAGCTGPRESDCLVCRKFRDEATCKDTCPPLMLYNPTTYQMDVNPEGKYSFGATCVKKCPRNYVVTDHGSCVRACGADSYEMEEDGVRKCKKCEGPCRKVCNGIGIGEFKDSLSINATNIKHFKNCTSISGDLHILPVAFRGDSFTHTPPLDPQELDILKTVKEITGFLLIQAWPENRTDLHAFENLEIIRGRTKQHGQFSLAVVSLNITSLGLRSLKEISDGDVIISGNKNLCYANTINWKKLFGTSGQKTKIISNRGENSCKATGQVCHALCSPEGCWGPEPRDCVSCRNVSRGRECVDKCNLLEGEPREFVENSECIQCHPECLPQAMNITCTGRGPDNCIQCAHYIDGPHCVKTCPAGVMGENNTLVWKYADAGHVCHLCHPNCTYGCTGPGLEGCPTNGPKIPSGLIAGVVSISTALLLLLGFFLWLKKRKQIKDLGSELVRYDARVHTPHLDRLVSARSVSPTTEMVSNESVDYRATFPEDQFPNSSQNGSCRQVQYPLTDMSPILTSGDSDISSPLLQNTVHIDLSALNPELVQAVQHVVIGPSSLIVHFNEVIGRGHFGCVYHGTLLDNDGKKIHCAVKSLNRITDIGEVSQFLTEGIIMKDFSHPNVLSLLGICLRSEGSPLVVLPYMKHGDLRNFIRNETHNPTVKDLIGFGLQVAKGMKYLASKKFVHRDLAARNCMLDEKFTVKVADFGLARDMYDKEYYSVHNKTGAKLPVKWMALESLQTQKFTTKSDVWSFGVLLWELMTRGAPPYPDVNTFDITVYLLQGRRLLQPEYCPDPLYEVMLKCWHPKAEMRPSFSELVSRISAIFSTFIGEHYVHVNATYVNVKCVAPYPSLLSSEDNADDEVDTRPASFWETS
row,SMILES,Met Kinase % Inhibition (P.130)
1,Cc1c(Br)cc(Br)c2c1C(=Cc1cc(F)ccc1F)C(=O)N2 [10737/H04],63.0%
2,O=C1Nc2ccc(S(=O)(=O)Nc3ccc(C(F)(F)F)cc3)cc2C1=Cc1cccc(Oc2cccc(C(F)(F)F)c2)c1 [10737/E11],24.8%
3,O=C1Nc2ccc(I)cc2C1=Cc1ccc(Oc2ccccc2)cc1 [10737/B09],77.0%
